Where “and” joins values, the source holds several entries; their conditions need not be identical. Equal values may be shown once. Where a SMILES comes first, the peptide text is derived from it. [ ]: non-standard residue; d: D form.
Test system: pituitary
Assay: In vitro growth hormone release study (incubated rat pituitaries, GH radioimmunoassay)
Format: cell-based
Conditions: pituitaries of 20 day old female rats, ΔGH (I3-P2),(I4-P2), ± SEM
Procedure: Female rats of the CD-1 strain were housed in a constant temperature room at 24° C. with 14 hours light and 10 hours darkness. The rats were fed Purina brand rat chow ab libitum.
All studies were started between 0800 and 1000 hours.
Pituitaries were removed from 20 day old female rats. Two pituitaries were incubated at 36° C. in 1 ml of lactated Ringer's solution in 10 ml polytetrafluoroethylene beakers in a Dubnoff Shaker (90 cycles/min.). The pituitaries were incubated a total of 4 hours (P1, P2, I3, and I4). After two successive one hour preincubation periods (P1, P2), the peptide was added to the incubation medium hourly for 2 hours (I3, I4).
This in vitro study was performed in triplicate and a standard radioimmunoassay of growth hormone present in the incubation medium was performed in duplicate. The hormonal activity was calculated as the difference (Δ) of growth hormone (GH) levels between I3, I4 and P2, i.e., (I3 -P2) and (I4 -P2). P values were calculated by Students' t test using six growth hormone values for each value recorded.
The growth hormone radioimmunoassay reagents were distributed by the National Institute of Arthritis and […] (NIAMDD) program. The growth hormone values were calculated in terms of nanograms (ng) of a rat standard with a growth hormone potency of 0.61 units/mg.

## CSCC[C@H](NC(=O)[C@H](CCCCN)NC(=O)[C@@H](Cc1ccccc1)NC(=O)[C@@H](Cc1ccccc1)NC(=O)[C@@H](N)Cc1c[nH]c2ccccc12)C(N)=O [H2 N--Trp--D-Phe--D-Phe--Lys--Met--CONH2, H2 N-Trp-D-Phe-D-Phe-Lys-Met-CONH2] (H-W[dF][dF]KM-NH2)
0.3μg peptide
  IN VITRO GROWTH HORMONE RELEASE: 24 ± 24 ngΔGH/ml incubation medium
10μg peptide
  IN VITRO GROWTH HORMONE RELEASE: 853 ± 138 ngΔGH/ml incubation medium and 440 ± 180 ngΔGH/ml incubation medium

— patent US4228155A, “Synthetic peptides having pituitary growth hormone releasing activity” (Beckman Instruments, Inc., priority 1979, dated 1980)
